From publication PMC5218480 (PLoS ONE, 2017)

System: MV-4-11 cells
Experiment: Gene expression microarray analysis (Affymetrix PrimeView) and GSEA
Type: cell-based, human
Design: RFU PODN (11730768_x_at) / Fold change /veh PODN (11730768_x_at) / RFU LINC00158 (11744669_a_at) / Fold change /veh LINC00158 (11744669_a_at) / RFU DUSP10 (11751237_a_at) / Fold change /veh DUSP10 (11751237_a_at) / RFU ID3 (11757404_x_at) / Fold change /veh ID3 (11757404_x_at) / RFU PLEKHG5 (11737974_s_at) / Fold change /veh PLEKHG5 (11737974_s_at) / RFU LRRC4B (11730491_at) / Fold change /veh LRRC4B (11730491_at) / RFU GIMAP4 (11747438_a_at) / Fold change /veh GIMAP4 (11747438_a_at) / RFU KRT8 (11758183_x_at) / Fold change /veh KRT8 (11758183_x_at) / RFU CNN1 (11734310_a_at) / Fold change /veh CNN1 (11734310_a_at) / RFU VPS37D (11726825_at) / Fold change /veh VPS37D (11726825_at) / RFU C10orf10 (11716522_x_at) / Fold change /veh C10orf10 (11716522_x_at) / RFU KIR2DL2 /// KIR2DL4 /// KIR2DL5A /// KIR2DL5B /// KIR2DS1 /// KIR2DS2 /// KIR2DS3 /// KIR2DS4 /// KIR3DL3 /// KIR3DL3 /// KIR3DS1 (11738374_at) / Fold change /veh KIR2DL2 /// KIR2DL4 /// KIR2DL5A /// KIR2DL5B /// KIR2DS1 /// KIR2DS2 /// KIR2DS3 /// KIR2DS4 /// KIR3DL3 /// KIR3DL3 /// KIR3DS1 (11738374_at) / RFU C1QL1 (11718748_at) / Fold change /veh C1QL1 (11718748_at) / RFU TMPRSS4 (11747572_a_at) / Fold change /veh TMPRSS4 (11747572_a_at) / RFU HAMP (11756126_x_at) / Fold change /veh HAMP (11756126_x_at) / RFU RNFT2 (11725882_a_at) / Fold change /veh RNFT2 (11725882_a_at) / RFU NR4A2 (11747474_a_at) / Fold change /veh NR4A2 (11747474_a_at) / RFU ABCC12 (11746883_a_at) / Fold change /veh ABCC12 (11746883_a_at) / RFU TMEM136 (11760407_x_at) / Fold change /veh TMEM136 (11760407_x_at) / RFU CLDN22 /// WWC2 (11732394_at) / Fold change /veh CLDN22 /// WWC2 (11732394_at) / RFU HLA-DPB1 (11760878_x_at) / Fold change /veh HLA-DPB1 (11760878_x_at) / RFU SPINT1 (11716480_a_at) / Fold change /veh SPINT1 (11716480_a_at) / RFU GAP43 (11754022_s_at) / Fold change /veh GAP43 (11754022_s_at) / RFU A4GNT (11735810_at) / Fold change /veh A4GNT (11735810_at) / RFU PRB3 (11715151_x_at) / Fold change /veh PRB3 (11715151_x_at) / RFU TUBB4B (11761932_at) / Fold change /veh TUBB4B (11761932_at) / RFU CAPN14 (11732068_a_at) / Fold change /veh CAPN14 (11732068_a_at) / RFU TMCC2 (11721928_a_at) / Fold change /veh TMCC2 (11721928_a_at) / RFU IRGQ (11745062_a_at) / Fold change /veh IRGQ (11745062_a_at) / RFU FAM174B (11720279_a_at) / Fold change /veh FAM174B (11720279_a_at) / RFU TMPRSS4 (11748680_a_at) / Fold change /veh TMPRSS4 (11748680_a_at) / RFU FAM212B (11763350_a_at) / Fold change /veh FAM212B (11763350_a_at) / RFU PLEKHG5 (11743358_a_at) / Fold change /veh PLEKHG5 (11743358_a_at) / RFU ZSCAN30 (11745921_a_at) / Fold change /veh ZSCAN30 (11745921_a_at) / RFU CMKLR1 (11741424_a_at) / Fold change /veh CMKLR1 (11741424_a_at) / RFU LOC101060620 /// MAPK8IP1 (11723275_at) / Fold change /veh LOC101060620 /// MAPK8IP1 (11723275_at) / RFU SPTSSB (11747773_x_at) / Fold change /veh SPTSSB (11747773_x_at) / RFU PRSS12 (11739890_at) / Fold change /veh PRSS12 (11739890_at) / RFU BIN1 (11741810_x_at) / Fold change /veh BIN1 (11741810_x_at) / RFU WNT11 (11732464_a_at) / Fold change /veh WNT11 (11732464_a_at) / RFU C10orf10 (11716521_a_at) / Fold change /veh C10orf10 (11716521_a_at) / RFU C5orf56 (11738089_at) / Fold change /veh C5orf56 (11738089_at) / RFU CYB561 (11721691_x_at) / Fold change /veh CYB561 (11721691_x_at) / RFU ANKRD19P (11752326_a_at) / Fold change /veh ANKRD19P (11752326_a_at) / RFU OR2T12 /// OR2T33 /// OR2T8 (11738714_s_at) / Fold change /veh OR2T12 /// OR2T33 /// OR2T8 (11738714_s_at) / RFU VCAN (11748164_a_at) / Fold change /veh VCAN (11748164_a_at) / RFU JSRP1 (11732532_at) / Fold change /veh JSRP1 (11732532_at) / RFU KRTAP10-11 (11738290_x_at) / Fold change /veh KRTAP10-11 (11738290_x_at) / RFU MYO3A (11730013_a_at) / Fold change /veh MYO3A (11730013_a_at) / RFU EBF3 (11725865_a_at) / Fold change /veh EBF3 (11725865_a_at) / RFU CAMK2N1 (11719241_x_at) / Fold change /veh CAMK2N1 (11719241_x_at) / RFU C5orf56 (11738088_a_at) / Fold change /veh C5orf56 (11738088_a_at) / RFU OLFML3 (11715873_a_at) / Fold change /veh OLFML3 (11715873_a_at) / RFU LOC100653217 /// NTM (11731650_a_at) / Fold change /veh LOC100653217 /// NTM (11731650_a_at) / RFU MAPK11 (11762145_a_at) / Fold change /veh MAPK11 (11762145_a_at) / RFU FIZ1 (11724087_x_at) / Fold change /veh FIZ1 (11724087_x_at) / RFU OASL (11726364_x_at) / Fold change /veh OASL (11726364_x_at) / RFU SOX15 (11748057_x_at) / Fold change /veh SOX15 (11748057_x_at) / RFU CD79A (11719716_a_at) / Fold change /veh CD79A (11719716_a_at) / RFU HIST1H1D (11736915_at) / Fold change /veh HIST1H1D (11736915_at) / RFU CASKIN2 (11723855_a_at) / Fold change /veh CASKIN2 (11723855_a_at) / RFU LOC730098 (11760151_x_at) / Fold change /veh LOC730098 (11760151_x_at) / RFU OR4N2 (11742367_at) / Fold change /veh OR4N2 (11742367_at) / RFU PRRT2 (11749266_a_at) / Fold change /veh PRRT2 (11749266_a_at) / RFU SNX32 (11753110_a_at) / Fold change /veh SNX32 (11753110_a_at) / RFU CDHR5 (11726645_a_at) / Fold change /veh CDHR5 (11726645_a_at) / RFU RCAN1 (11760418_a_at) / Fold change /veh RCAN1 (11760418_a_at) / RFU FAM167A (11723789_a_at) / Fold change /veh FAM167A (11723789_a_at) / RFU FAM26E (11764081_at) / Fold change /veh FAM26E (11764081_at) / RFU ISYNA1 (11749810_s_at) / Fold change /veh ISYNA1 (11749810_s_at) / RFU ACY1 (11761880_at) / Fold change /veh ACY1 (11761880_at) / RFU 11764098_at / Fold change /veh 11764098_at / RFU SAMD14 (11745864_x_at) / Fold change /veh SAMD14 (11745864_x_at) / RFU NPB (11741838_a_at) / Fold change /veh NPB (11741838_a_at) / RFU TMPRSS6 (11731388_a_at) / Fold change /veh TMPRSS6 (11731388_a_at) / RFU KRTAP10-2 (11738614_at) / Fold change /veh KRTAP10-2 (11738614_at) / RFU ARHGAP8 /// PRR5-ARHGAP8 (11727945_x_at) / Fold change /veh ARHGAP8 /// PRR5-ARHGAP8 (11727945_x_at) / RFU KRTAP5-7 /// NADSYN1 (11734609_at) / Fold change /veh KRTAP5-7 /// NADSYN1 (11734609_at) / RFU RASL12 (11751679_a_at) / Fold change /veh RASL12 (11751679_a_at) / RFU CDKN2B (11736163_a_at) / Fold change /veh CDKN2B (11736163_a_at) / RFU PRF1 (11729649_at) / Fold change /veh PRF1 (11729649_at) / RFU, ZNF638 /// ZNF638-IT1 / Fold change vs veh, ZNF638 /// ZNF638-IT1 / RFU, PANK3 / Fold change vs veh, PANK3 / RFU, SH3YL1 / Fold change vs veh, SH3YL1 / RFU, ZEB2 / Fold change vs veh, ZEB2 / RFU, NRIP1 / Fold change vs veh, NRIP1 / RFU, PTTG1IP / Fold change vs veh, PTTG1IP / RFU, CAPN2 / Fold change vs veh, CAPN2 / RFU, MED14 / Fold change vs veh, MED14 / RFU, SNORA58 / Fold change vs veh, SNORA58 / RFU, C1orf63 / Fold change vs veh, C1orf63 / RFU, LRRFIP1 / Fold change vs veh, LRRFIP1 / RFU, NDUFAF7 / Fold change vs veh, NDUFAF7 / RFU, SLC12A2 / Fold change vs veh, SLC12A2 / RFU, IBTK / Fold change vs veh, IBTK / RFU, ESF1 / Fold change vs veh, ESF1 / Fold change vs veh, TMEM50B / RFU, TAOK1 / Fold change vs veh, TAOK1 / RFU, ACBD3 / Fold change vs veh, ACBD3 / RFU, TMA16 / Fold change vs veh, TMA16 / RFU, RWDD3 / Fold change vs veh, RWDD3 / RFU, BCAT1 / Fold change vs veh, BCAT1 / RFU, EDEM3 / Fold change vs veh, EDEM3 / RFU, TMEM33 / Fold change vs veh, TMEM33 / RFU, WDR75 / Fold change vs veh, WDR75 / RFU, AHCTF1 / Fold change vs veh, AHCTF1 / RFU, TFRC / Fold change vs veh, TFRC / RFU, ZDHHC17 / Fold change vs veh, ZDHHC17 / RFU, NOM1 / Fold change vs veh, NOM1 / RFU, ARL8B / Fold change vs veh, ARL8B / RFU, ZBTB11 / Fold change vs veh, ZBTB11 / RFU, TAMM41 / Fold change vs veh, TAMM41 / RFU, KIAA1704 /// LOC100996395 / Fold change vs veh, KIAA1704 /// LOC100996395 / RFU, ING1 / Fold change vs veh, ING1 / RFU, TRMT61B / Fold change vs veh, TRMT61B / RFU, FUBP3 / Fold change vs veh, FUBP3 / RFU, TP53 / Fold change vs veh, TP53 / RFU, TNKS2 / Fold change vs veh, TNKS2 / RFU, ZFP14 / Fold change vs veh, ZFP14 / RFU, ACTR2 / Fold change vs veh, ACTR2 / RFU, PPP3R1 / Fold change vs veh, PPP3R1 / RFU, PIK3R1 / Fold change vs veh, PIK3R1 / RFU, HNRNPA1 / Fold change vs veh, HNRNPA1 / RFU, RNF170 / Fold change vs veh, RNF170 / RFU, ZNF28 / Fold change vs veh, ZNF28 / RFU, RNGTT / Fold change vs veh, RNGTT / RFU, OGT / Fold change vs veh, OGT / RFU, BRD1 / Fold change vs veh, BRD1 / RFU, MARS / Fold change vs veh, MARS / RFU, ZNF655 / Fold change vs veh, ZNF655 / RFU, FAHD1 / Fold change vs veh, FAHD1 / RFU, BDP1 / Fold change vs veh, BDP1 / RFU, LRRCC1 / Fold change vs veh, LRRCC1 / RFU, ARID1A / Fold change vs veh, ARID1A / RFU, ZNF146 / Fold change vs veh, ZNF146 / RFU, ZNF330 / Fold change vs veh, ZNF330 / RFU, GPN3 / Fold change vs veh, GPN3 / RFU, C9orf123 / Fold change vs veh, C9orf123 / RFU, N4BP2L2 / Fold change vs veh, N4BP2L2 / RFU, ARFIP1 / Fold change vs veh, ARFIP1 / RFU, FAM179B / Fold change vs veh, FAM179B / RFU, BCL10 / Fold change vs veh, BCL10 / RFU, UHRF1BP1L / Fold change vs veh, UHRF1BP1L / RFU, BET1 / Fold change vs veh, BET1 / RFU, CNOT2 / Fold change vs veh, CNOT2 / RFU, ZNF268 / Fold change vs veh, ZNF268 / Fold change vs veh, ZNF507 / RFU, DGCR2 / Fold change vs veh, DGCR2 / RFU, WDSUB1 / Fold change vs veh, WDSUB1 / Fold change vs veh, HSP90B1 /// MIR3652 / RFU, ADSS / Fold change vs veh, ADSS / RFU, GK / Fold change vs veh, GK / RFU, ZNF148 / Fold change vs veh, ZNF148 / RFU, TAF9 / Fold change vs veh, TAF9 / RFU, SLC1A5 / Fold change vs veh, SLC1A5 / RFU, SLMO2 / Fold change vs veh, SLMO2 / RFU, ABCC4 / Fold change vs veh, ABCC4 / RFU, LOC101060439 /// RAP1B / Fold change vs veh, LOC101060439 /// RAP1B / RFU, RFX7 / Fold change vs veh, RFX7 / RFU, GTPBP10 / Fold change vs veh, GTPBP10 / RFU, CNEP1R1 / Fold change vs veh, CNEP1R1 / RFU, BIVM-ERCC5 /// ERCC5 / Fold change vs veh, BIVM-ERCC5 /// ERCC5 / RFU, ILF3 / Fold change vs veh, ILF3 / RFU 11762660_at / Fold change /veh 11762660_at / RFU VCAN (11757783_s_at) / Fold change /veh VCAN (11757783_s_at) / RFU DDX43 (11728927_at) / Fold change /veh DDX43 (11728927_at) / RFU KRT8 (11758188_x_at) / Fold change /veh KRT8 (11758188_x_at) / RFU NKD1 (11759106_at) / Fold change /veh NKD1 (11759106_at) / RFU SRD5A1 (11742802_a_at) / Fold change /veh SRD5A1 (11742802_a_at) / RFU TPSAB1 /// TPSB2 (11721975_s_at) / Fold change /veh TPSAB1 /// TPSB2 (11721975_s_at) / RFU GSTM3 (11746129_a_at) / Fold change /veh GSTM3 (11746129_a_at) / RFU IL23R (11737362_x_at) / Fold change /veh IL23R (11737362_x_at) / RFU TMEM51 (11727254_a_at) / Fold change /veh TMEM51 (11727254_a_at) / RFU PIWIL2 (11732686_x_at) / Fold change /veh PIWIL2 (11732686_x_at) / RFU ORM1 (11744905_x_at) / Fold change /veh ORM1 (11744905_x_at) / RFU CCDC152 (11743942_at) / Fold change /veh CCDC152 (11743942_at) / RFU ECM1 (11717891_a_at) / Fold change /veh ECM1 (11717891_a_at) / RFU IL23R (11748794_a_at) / Fold change /veh IL23R (11748794_a_at) / RFU TNFAIP8L3 (11732012_x_at) / Fold change /veh TNFAIP8L3 (11732012_x_at) / RFU MBOAT4 (11741988_at) / Fold change /veh MBOAT4 (11741988_at) / RFU 11764193_at / Fold change /veh 11764193_at / RFU TMEM53 (11763286_at) / Fold change /veh TMEM53 (11763286_at) / RFU MAGEB2 (11727129_at) / Fold change /veh MAGEB2 (11727129_at) / RFU TMEM200A (11744735_a_at) / Fold change /veh TMEM200A (11744735_a_at) / RFU CCDC152 (11751479_a_at) / Fold change /veh CCDC152 (11751479_a_at) / RFU FAM211A (11726209_a_at) / Fold change /veh FAM211A (11726209_a_at) / RFU RGS16 (11746705_a_at) / Fold change /veh RGS16 (11746705_a_at) / RFU VCAN (11755009_s_at) / Fold change /veh VCAN (11755009_s_at) / RFU RHOB (11743442_s_at) / Fold change /veh RHOB (11743442_s_at) / RFU RGS16 (11720943_a_at) / Fold change /veh RGS16 (11720943_a_at) / RFU RGS16 (11720944_at) / Fold change /veh RGS16 (11720944_at) / RFU, VPS4B / Fold change vs veh, VPS4B / RFU, CREB1 / Fold change vs veh, CREB1 / RFU, DNAJC13 / Fold change vs veh, DNAJC13 / RFU, GNAQ / Fold change vs veh, GNAQ / RFU, CDK5R1 / Fold change vs veh, CDK5R1 / RFU, ZRANB3 / Fold change vs veh, ZRANB3 / RFU, CUL4A / Fold change vs veh, CUL4A / RFU, CCNY / Fold change vs veh, CCNY / RFU, UFL1 / Fold change vs veh, UFL1 / RFU, COG3 / Fold change vs veh, COG3 / RFU, DIAPH2 / Fold change vs veh, DIAPH2 / RFU, SKA2 / Fold change vs veh, SKA2 / RFU, AFF3 / Fold change vs veh, AFF3 / RFU, LMF1 / Fold change vs veh, LMF1 / RFU, IPO11 / Fold change vs veh, IPO11 / RFU, DFFB / Fold change vs veh, DFFB / RFU, FOXP1 / Fold change vs veh, FOXP1 / RFU, CARD8 / Fold change vs veh, CARD8 / RFU, STRN3 / Fold change vs veh, STRN3 / RFU, ADK / Fold change vs veh, ADK / RFU, RASSF2 / Fold change vs veh, RASSF2 / RFU, WIPF1 / Fold change vs veh, WIPF1 / RFU, LARP1B / Fold change vs veh, LARP1B / RFU, RASA1 / Fold change vs veh, RASA1 / RFU, RB1 / Fold change vs veh, RB1 / RFU, PPFIA1 / Fold change vs veh, PPFIA1 / RFU, MAT2A / Fold change vs veh, MAT2A / RFU, CCT5 / Fold change vs veh, CCT5 / RFU, WDR92 / Fold change vs veh, WDR92 / RFU, CUX1 / Fold change vs veh, CUX1 / RFU, TTC7A / Fold change vs veh, TTC7A / RFU, TMEM135 / Fold change vs veh, TMEM135 / RFU, DEPTOR / Fold change vs veh, DEPTOR / RFU, CPM / Fold change vs veh, CPM / RFU, DNAJB6 / Fold change vs veh, DNAJB6 / RFU, CACNA2D3 / Fold change vs veh, CACNA2D3 / RFU, DTX4 / Fold change vs veh, DTX4 / RFU, TFCP2 / Fold change vs veh, TFCP2 / RFU, GMCL1 /// GMCL1P1 / Fold change vs veh, GMCL1 /// GMCL1P1 / RFU, AEBP2 / Fold change vs veh, AEBP2 / RFU, SNHG1 /// SNORD22 /// SNORD25 /// SNORD26 /// SNORD27 /// SNORD28 /// SNORD29 /// SNORD31 / Fold change vs veh, SNHG1 /// SNORD22 /// SNORD25 /// SNORD26 /// SNORD27 /// SNORD28 /// SNORD29 /// SNORD31 / Fold change (Aza/veh), C12orf56 (ProbeSet 11735607_a_at) / Fold change (ACY-1035/veh), C12orf56 (ProbeSet 11735607_a_at) / Fold change (Aza/veh), FGFR1OP (ProbeSet 11751329_s_at) / Fold change (ACY-1035/veh), FGFR1OP (ProbeSet 11751329_s_at) / Fold change (Aza/veh), VPS36 (ProbeSet 11739960_a_at) / Fold change (ACY-1035/veh), VPS36 (ProbeSet 11739960_a_at) / RFU SYPL1 (11715823_x_at) / Fold change /veh SYPL1 (11715823_x_at) / RFU IGFBP7 (11715501_s_at) / Fold change /veh IGFBP7 (11715501_s_at) / RFU REEP3 (11722064_at) / Fold change /veh REEP3 (11722064_at) / RFU IGLL1 (11728026_x_at) / Fold change /veh IGLL1 (11728026_x_at): dose or concentration left out as unconfirmed
Conditions: MV-4-11 cells, 48 hours

Nc1ncn([C@@H]2O[C@H](CO)[C@@H](O)[C@H]2O)c(=O)n1 [azacitidine]
Fold change /veh WNT11 (11732464_a_at): 0.83
